Series [1] deals with T1, MAGL (Mus musculus, UniProt O35678).
T1 construct: brain proteomes were prepared and analyzed according to previously established methods; from tissue; host or cells: brain of wild-type C57Bl/6J mice
T1 sequence (O35678 1-303): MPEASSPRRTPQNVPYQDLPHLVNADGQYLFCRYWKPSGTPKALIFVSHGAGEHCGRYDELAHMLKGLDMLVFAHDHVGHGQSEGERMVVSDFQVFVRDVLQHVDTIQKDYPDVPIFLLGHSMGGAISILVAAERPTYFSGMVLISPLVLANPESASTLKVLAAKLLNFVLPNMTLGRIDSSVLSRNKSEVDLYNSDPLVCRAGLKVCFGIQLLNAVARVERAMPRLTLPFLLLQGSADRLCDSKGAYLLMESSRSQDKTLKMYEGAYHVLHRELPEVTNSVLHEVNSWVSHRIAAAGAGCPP
The series is described as follows: In vivo MAGL inhibition in mouse brain proteomes after oral gavage. The conditions noted are these: 5 mg/kg oral gavage, 4 h after administration, read-out: MAGL % inh. 5 mg/kg (mouse). How it is done:
Inhibitors were administered to wild-type C57B1/6J by oral gavage in a vehicle of polyethylene glycol. Each animal was sacrificed 4 h following administration and brain proteomes were prepared and analyzed according to previously established methods (See Niphakis, M. J., et al. (2011) ACS Chem. Neurosci. and Long, J. Z., et al. Nat. Chem. Biol. 5:37-44).

Series [2] in a line: Rat Kp, brain disposition after oral gavage. The class given is in vivo. How it is done: (§1) Brain disposition was evaluated in male Sprague-Dawley rats (n=3, standard body weight). Briefly, test compound was formulated as a simple suspension, in 0.5% HPMC in water, then administered by oral gavage (5 mg/kg, 5 mL/kg). Four hours post dosing, rats were sacrificed, and terminal blood and brain samples were taken. Blood was obtained via cardiac puncture (0.1 mL) and was added into 0.4 mL CH3CN for precipitation immediately. The samples were stored at −75+/−15° C. prior to analysis. Brain tissue samples were collected after animals were fully exsanguinated, and the tissues were washed with cold saline quickly. After sectioning, brain sections were immediately frozen in liquid nitrogen and stored at −75+/−15° C. prior to analysis. Blood and brain samples were analyzed by LC/MS/MS using an optimized analytical method. Concentrations of test compound in blood and brain were quantified against matrix matched calibration standards. The total blood, plasma, and brain concentration data are presented in Table 2 alongside the calculated brain Kp (total brain concentration:total plasma concentration ratio), the calculated brain kp,uu (unbound brain concentration:unbound plasma concentration ratio), the free fractions in rat plasma and brain, and the in vitro rat blood to plasma distribution profile. The total plasma concentration data were calculated from the total blood concentration data using rat blood to plasma ratio which was measured in vitro (1 μM test compound). For kp,uu determination, the free fraction in rat plasma and brain homogenate were measured in vitro by standard equilibrium dialysis (1 μM test compound and 6 h equilibration against buffer pH 7.4; for rat plasma analysis, 100 mM stock solution of diisopropyl fluorophosphate was added to the pre-warmed rat plasma prior to adding test article).

Series [3] in a line: Free fraction in rat plasma and brain homogenate by equilibrium dialysis. In kind it is in vitro ADME. How it is done:
as §1

The nature of series [4]: In vitro rat blood to plasma ratio. The conditions noted are these: 1 μM test compound. In kind it is in vitro ADME. How it is done: as §1
Series [5] can be described thus: Kinetic solubility in PBS. In kind it is physicochemical. Conditions: aqueous buffer, kinetic from dmso stock. Summed up:
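Solubility measured in PBS at pH 2.0 and pH 7.4, in duplicate, starting from 10 mM DMSO stock; shaken 2 h at RT at 1,100 RPM. Filtrate diluted and quantified by LC-MS/MS (positive MRM) against a DMSO standard of known concentration.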

Series [6] in a line: Thermodynamic solubility in PBS. Conditions: aqueous buffer, thermodynamic from solid; PBS pH 7.4; 24 hours at RT. The class given is physicochemical. How it is done: The thermodynamic solubility of test article was determined in PBS at pH 7.4 in duplicate. The test article (1.5 mg) in PBS was incubated for 24 hours at RT with shaking at 1100 rpm. Sample was then filtered using a vacuum manifold, diluted, and analyzed by LC-MS/MS. Chromatographic conditions: Phenomenex Synergi 4μ Hydro-PR 80A column (2.0×30 mm) coupled with pre-guard column; mobile phase=0.1% formic acid in acetonitrile and 0.1% formic acid in water; flowrate=0.65 mL/min; column temperature=40 degrees C.; injection volume: 10 μL.
Mobile phase: 0.1% formic acid in acetonitrile (A) and 0.1% formic acid in water (B)
Mass conditions: Turbo spray ion source; ESI ionization model; MRM scan type; Collison gas=6 L/min; Curtain gas=30 L/min; Nebulize gas=50 L/min; Auxiliary gas=50 L/min; Temperature=500 degrees C.; Ion spray voltage=+5500 v (positive MRM).
The filtered solution was analyzed and quantified against a standard of known concentration in DMSO using UPLC coupled with mass spectral peak identification and quantitation. Solubility values of the test articles were calculated using Microsoft Excel as follows (DF is the dilution factor): […]

The nature of series [7]: In vitro human hepatocyte stability. The class given is in vitro ADME. Conditions: cryopreserved human hepatocytes (pooled donor), human hepatocytes 0.5×10^6 cells/mL, read-out: Scaled-up unbound CLint. How it is done: The metabolic stability of test articles (1 μM) in commercially sourced, pooled donor, cryopreserved human hepatocytes (0.5×10^6 cells/mL) was determined in duplicate. The CLint reactions (250 μL) were initiated by addition of test compound. Aliquots (25 μL) were taken at 0, 15, 30, 45, 60, 90, 120 and 240 minutes and then protein crashed with ice-cold acetonitrile containing internal standard then centrifuged (3220 g for 25 minutes). Supernatant was used for LC-MS/MS analysis. The in vitro half-life (in vitro t1/2) was determined from the slope value: in vitro t1/2=−0.693/k. Conversion of the in vitro t1/2 (in min) into the scale-up unbound intrinsic clearance (Scaled-up unbound CLint, in mL/min/kg) was done using the following equation (mean of duplicate determinations), with data shown in Table 5: Scaled-up unbound CLint=kV/N×scaling factor. V=incubation volume (0.25 mL); N=number of hepatocytes per well ([…]). Scaling factors for in vivo intrinsic clearance prediction are listed below: […]

[8] abbreviates: 5 mg/kg oral gavage, 4 h post dosing, mean n = 3.

Like-named read-outs stand apart in the source and are kept apart here.

Consider `O=C(Nc1cccnc1)[C@H]1CC12CCN(C(=O)OC(C(F)(F)F)C(F)(F)F)CC2` (single isomer, unassigned) [Example 2], for which the inhibition at 5 mg/kg in series [1] was found to be 100%. The Total plasma concentration in series [2] (5 mg/kg oral gavage, 4 h, calculated from total blood concentration using blood to plasma ratio) is 0.066 µM. For the same compound, the Total blood concentration in series [2] (setting [8]) was 0.049 µM. The compound further showed a Total brain concentration in series [2] (setting [8]) of 0.199 µM. For the same compound, the Kp (as a rule, the ratio of the level in a tissue or fluid to that in plasma or blood) at 4 h in series [2] (male, Sprague-Dawley, po, total brain concentration:total plasma concentration ratio, 5 mg/kg p.o., 4 h) was found to be 3.01. Besides, in series [2] (male, Sprague-Dawley, po, unbound brain concentration:unbound plasma concentration ratio, 5 mg/kg p.o., 4 h), the Kp uu at 4 h was 0.925. The fraction unbound at 6 h, 1 μM in series [3] (rat brain homogenate, buffer pH 7.4, read-out: Rat brain free fraction) turned out to be 0.024; in series [3] (rat plasma, buffer pH 7.4, read-out: Rat plasma free fraction), 0.078. Also, in series [4], the blood plasma ratio at 1 μM was found to be 0.833. The solubility (kinetic) (commonly the concentration staying in solution when a stock, usually in DMSO, is diluted into the medium) at 2 h in series [5] (PBS pH 2.0, RT, read-out: pH 2 Solubility (kinetic)) stood at 30.3 µM; in series [5] (PBS pH 7.4, RT, read-out: pH 7.4 Solubility (kinetic)), 189 µM. In addition, in series [6], the thermodynamic solubility (as a rule, solubility found after equilibrating the solid with the medium) at 24 h was 91.8 µg/mL. Also, the CLint scaled (usually the rate of metabolic loss divided by the concentration) at 1 μM in series [7] came to 34.8 mL/min/kg.
